Experimental findings from patent US8153614B2, “Treatment of osteoarthritis” (Glycoscience Laboratories, Inc., priority 2006, dated 2012) are described below.

This test has as its system C57BL/6 mice, which spontaneously develop osteoarthritis. Briefly: Macroscopic examination (India ink) of knee joint cartilage in the spontaneous osteoarthritis mouse model. In kind it is in vivo. As to conditions: oral HA4 100 mg/10 ml/kg once daily for 2 weeks. As to the method:
In this example, HA4 was administered to C57BL/6 mice, which spontaneously develop osteoarthritis, to examine effects thereof.
20-week-old male C57BL/6 mice were purchased from Charles River Laboratories Japan, Inc., and animals which developed osteoarthritis were used. The animals were divided into the negative control (treated with physiological saline) group and the oral HA4 (100 mg/10 ml/kg) treated group.
In this example, 10 mg/ml HA4 was prepared. Specifically, HA4 was prepared by the method of Tawada et al. (Tawada A, Masa T, Oonuki Y, Watanabe A, Matsuzaki Y, Asari A. Large-scale preparation, purification, and characterization of hyaluronan oligosaccharides from 4-mers to 52-mers. Glycobiology. 2002; 12(7): 421-6.), and the concentration was adjusted with physiological saline. Furthermore, physiological saline was prepared as a control.
In this example, the test substance or physiological saline was orally given to mice which developed osteoarthritis using an oral sonde once daily for 2 weeks.
Osteoarthritis curing effects were determined macroscopically. […] For this evaluation method, refer to Chang D G, Iverson E P, Schinagl R M, Sonoda M, Amiel D, Coutts R D, Sah R L. Quantitation and localization of cartilage degeneration following the induction of osteoarthritis in the rabbit knee. […]

As for tetrasaccharide hyaluronan [HA4], the “Therapeutic effects against osteoarthritis” value is recorded as “therapeutic effects against osteoarthritis were confirmed”. The “MEAN score (remaining India ink)” value (saline control mean 4.8) is on record as “MEAN 1.4”.
